Experimental data from patent publication US20250197372A1 (priority 2020, published 2025).

What was measured:
Assay type in all cases: biochemical
[1] = target: rat sucrase (partially purified alpha-glucosidase from intestinal rat powder) (Rattus norvegicus, UniProt P23739); experiment: Intestinal alpha-glucosidase assay, sucrose substrate (Glucose GO Kit)
Description: (§1) Intestinal alpha-glucosidases (rat maltase and sucrase): Intestinal alpha-glucosidases act upon 1,4-alpha-glucoside bonds, breaking down disaccharides to glucose. To perform this assay, partially purified alpha-glucosidase from intestinal rat powder was incubated for 60 minutes at 37° C. with multiple dilutions of test compounds. Maltose or Sucrose respectively was then introduced as substrate to the mixture and incubated for 30 minutes at 37° C. The reaction was stopped by a 5-minute incubation at 90° C. and the resultant glucose production is detected using Sigma's Glucose GO Kit. Percent inhibition was then plotted as a function of concentration for each test compound. The IC50 was determined using a 4-PL curve fit and serves as the measure of relative inhibition of each test compound (see Table 3).

[2] = target: T1, recombinant alpha-glucosidase II (murine full-length glucosidase II, alpha and beta subunits, Glu 2) (Mus musculus, UniProt Q8BHN3); experiment: Alpha-glucosidase II assay (4-methylumbelliferyl-alpha-D-pyranoside substrate, fluorescence); conditions: Glucosidase 2; read-out: Glu2 IC50
T1 construct: made in house; host or cells: HEK-293T cells transduced with BacMam viruses (75% alpha, 25% beta); protein harvested from culture supernatant

[3] = target: recombinant human GAA (acid alpha-glucosidase) (Homo sapiens, UniProt P10253); experiment: Acid alpha-glucosidase (GAA) assay (4-methylumbelliferyl-alpha-D-pyranoside substrate, fluorescence)
Description: Acid alpha-glucosidase (GAA): To analyze inhibitory effects of a test compound, commercially available recombinant human GAA was incubated with multiple dilutions of test compound for 60 minutes at 37° C. 4-methylumbelliferyl-alpha-D-pyranoside was then introduced to the mixture as the substrate. 1,4-methyllumbelliferone is generated, and after an incubation for 20 minutes at 37° C., the reaction was stopped with the stop solution (0.5M glycine 0.3M NaOH pH 10). 1,4-methyllumbelliferone is detected by fluorescence (excitation at 365 nm, emission at 440 nm). Relative fluorescence compared to untreated enzymatic activity and test compound concentration is plotted as a function of percent inhibition. The IC50 is determined using a 4-PL curve fit as the measure of relative inhibitory activity of each test compound (see Table 3).

[4] = target: rat maltase (partially purified alpha-glucosidase from intestinal rat powder); experiment: Intestinal alpha-glucosidase assay, maltose substrate (Glucose GO Kit)
Description: as §1

[5] = target: T2, recombinant alpha-glucosidase I (human full-length glucosidase I, Glu 1) (Homo sapiens, UniProt Q13724); experiment: Alpha-glucosidase I assay (Amplex Red glucose detection, synthetic trisaccharide substrate); conditions: Glucosidase 1; read-out: Glu 1 IC50
T2 construct: 6-His (C); made in house; host or cells: HEK-293T cells transduced with BacMam virus (virus raised in Sf9)
T2 sequence (Q13724 1-837): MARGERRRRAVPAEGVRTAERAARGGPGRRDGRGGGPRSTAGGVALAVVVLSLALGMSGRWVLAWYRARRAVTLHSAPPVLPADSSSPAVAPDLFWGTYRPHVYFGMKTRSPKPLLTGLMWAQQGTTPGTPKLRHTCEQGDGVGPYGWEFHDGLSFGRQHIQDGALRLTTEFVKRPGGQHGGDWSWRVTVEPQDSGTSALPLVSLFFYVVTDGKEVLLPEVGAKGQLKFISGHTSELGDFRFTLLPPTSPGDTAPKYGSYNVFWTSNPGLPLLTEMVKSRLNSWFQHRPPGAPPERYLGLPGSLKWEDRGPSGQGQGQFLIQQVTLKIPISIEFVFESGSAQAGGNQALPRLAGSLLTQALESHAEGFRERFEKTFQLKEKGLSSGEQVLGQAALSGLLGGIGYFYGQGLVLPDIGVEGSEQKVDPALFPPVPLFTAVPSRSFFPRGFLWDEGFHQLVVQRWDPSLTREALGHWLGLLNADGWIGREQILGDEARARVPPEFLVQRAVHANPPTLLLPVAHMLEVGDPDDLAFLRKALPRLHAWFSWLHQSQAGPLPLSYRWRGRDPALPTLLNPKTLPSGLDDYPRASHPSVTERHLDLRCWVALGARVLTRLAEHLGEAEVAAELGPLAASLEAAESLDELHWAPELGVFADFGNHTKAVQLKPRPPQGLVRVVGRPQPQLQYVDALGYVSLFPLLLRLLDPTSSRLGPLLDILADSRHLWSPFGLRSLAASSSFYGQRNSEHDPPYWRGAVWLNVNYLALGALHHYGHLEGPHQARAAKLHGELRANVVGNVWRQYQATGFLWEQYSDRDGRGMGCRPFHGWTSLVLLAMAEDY
Source text: Preparation of Human Full-length Glucosidase I: The amino acid sequence for human full-length glucosidase I was obtained from UniProt (Q13724). […] The entry vector was cloned into Kemp Proteins' BacMam Destination vector and transformed into chemically competent DH10Bac E. coli cells to produce recombinant glucosidase I bacmids. Bacmid isolates were obtained following two rounds of blue-white screening and they were transfected into Sf9 cells cultivated in serum-free medium (Thermo Fisher Scientific). Four days post-transfection the culture supernatants containing virus were harvested and filter sterilized. […] A multiplicity of infection (MOI, ratio of virus to cells) of 4 was selected. Soluble glucosidase I was detected by anti-His western blots in the soluble cell extract following extraction with 1% V/V NP40 for 30 minutes at 0° C. Productions and purifications of glucosidase I were carried out at scales ranging from 1-liter to 10-liters. […] In another example production at the 10-liter scale was performed in stirred-tank bioreactors at 27° C. and 80 rpm with dissolved oxygen level at 50% of oxygen in air and pH between 7.0 and 7.2. Cells were transduced at MOI of 4 and the cell pellet was harvested at 48 hours post-transduction using centrifugation.
The pellet from a 10-liter culture was lysed by resuspending the pellet into 1-liter of 50 mM NaH2PO4—H2O+300 mM NaCl+10 mM Imidazole+1 mM PMSF+1% V/V NP40 pH 8. The suspension was incubated on ice for 30 minutes and clarified at 500×g and 4° C. The supernatant was collected and clarified at 20,000×g for 30 minutes at 4° C. and the supernatant was collected and filtered through a 0.2 micron filter. […] The column was washed with 20 column volumes (CV) of 50 mM NaH2PO4-H2O+300 mM NaCl+10 mM Imidazole pH 8 and eluted using a linear gradient of 0-60% 50 mM NaH2PO4-H2O+300 mM NaCl+500 mM Imidazole pH 8 over 90 minutes. at 5 mL per minute. Fractions (25 mL) were collected and analyzed by SDS PAGE and Western Blot (reducing anti-His). Fractions containing purified glucosidase I were pooled and dialyzed into storage buffer (20 mM Tris+300 mM NaCl+50 mM L-arginine+10 mM EDTA+0.01% V/V Tween 80 pH 7.5). The final material was filter sterilized and stored at 4° C. and the working dilution confirmed by a use-test in the indicated assay conditions prior to use.
Alpha-glucosidase I Assay: The assay was performed by incubating recombinant alpha-glucosidase I enzyme with multiple dilutions of test compounds for 60 minutes at 37° C. A synthetic trisaccharide substrate analog was then introduced to the mixture for 90 minutes at 37° C. The reaction was then stopped with 1.5M Tris (pH 8). In the absence of inhibition, the terminal glucose of the substrate was hydrolyzed by the enzyme. The D-glucose product was detected using Amplex Red Glucose/Glucose Oxidase Assay Kit (Invitrogen) following the manufacturer's directions where glucose oxidase reacts with D-glucose to form D-gluconolactone and H2O2 which then reacts with the Amplex Red reagent to generate a red-fluorescent oxidation product (560 nm, excitation; 590 nm, emission). […] Percent inhibition is plotted as a function of concentration for each compound, compared to control reactions. The IC50 was determined using a 4-PL curve fit and serves as a measure of relative inhibitory activity of each test compound (see Table 3).

T1 sequence (O08795 15-521): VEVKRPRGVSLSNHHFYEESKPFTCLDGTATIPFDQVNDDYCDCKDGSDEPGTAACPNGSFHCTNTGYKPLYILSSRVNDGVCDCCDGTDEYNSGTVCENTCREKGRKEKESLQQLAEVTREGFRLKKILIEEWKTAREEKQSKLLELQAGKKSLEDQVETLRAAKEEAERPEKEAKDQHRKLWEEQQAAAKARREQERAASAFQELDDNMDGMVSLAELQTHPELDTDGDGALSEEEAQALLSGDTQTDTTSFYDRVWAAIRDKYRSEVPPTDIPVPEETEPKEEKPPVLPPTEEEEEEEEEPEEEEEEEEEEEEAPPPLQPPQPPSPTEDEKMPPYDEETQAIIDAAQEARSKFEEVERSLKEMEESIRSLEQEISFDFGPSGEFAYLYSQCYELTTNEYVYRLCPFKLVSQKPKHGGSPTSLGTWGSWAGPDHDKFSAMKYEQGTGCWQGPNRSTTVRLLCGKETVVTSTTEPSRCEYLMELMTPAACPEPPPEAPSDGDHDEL
T1 sequence (Q8BHN3 33-944): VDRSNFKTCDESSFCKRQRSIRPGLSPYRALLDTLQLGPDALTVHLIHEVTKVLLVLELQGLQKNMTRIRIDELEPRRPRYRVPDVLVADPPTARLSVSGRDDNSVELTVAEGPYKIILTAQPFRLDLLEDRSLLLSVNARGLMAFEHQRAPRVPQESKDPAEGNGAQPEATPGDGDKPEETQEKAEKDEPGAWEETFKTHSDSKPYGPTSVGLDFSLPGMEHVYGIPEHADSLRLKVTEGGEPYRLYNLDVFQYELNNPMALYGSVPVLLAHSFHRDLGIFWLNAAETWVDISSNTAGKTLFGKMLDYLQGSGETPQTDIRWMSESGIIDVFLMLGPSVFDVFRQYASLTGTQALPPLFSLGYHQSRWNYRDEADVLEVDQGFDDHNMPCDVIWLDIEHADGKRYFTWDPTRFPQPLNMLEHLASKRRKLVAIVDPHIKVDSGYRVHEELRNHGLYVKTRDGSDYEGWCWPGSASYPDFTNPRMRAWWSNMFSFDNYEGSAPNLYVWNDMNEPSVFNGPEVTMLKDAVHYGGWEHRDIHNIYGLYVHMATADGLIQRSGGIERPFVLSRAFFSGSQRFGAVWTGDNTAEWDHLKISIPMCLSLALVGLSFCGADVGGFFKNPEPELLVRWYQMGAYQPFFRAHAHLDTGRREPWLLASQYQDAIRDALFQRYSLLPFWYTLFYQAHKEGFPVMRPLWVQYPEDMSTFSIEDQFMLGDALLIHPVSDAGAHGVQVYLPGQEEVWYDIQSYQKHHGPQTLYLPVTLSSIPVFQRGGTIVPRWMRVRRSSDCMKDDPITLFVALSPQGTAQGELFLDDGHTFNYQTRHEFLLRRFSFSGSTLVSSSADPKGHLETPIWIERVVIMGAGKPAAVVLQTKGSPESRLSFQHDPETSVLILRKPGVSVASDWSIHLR
Chain of rat sucrase (partially purified alpha-glucosidase from intestinal rat powder) (P23739 whole entry): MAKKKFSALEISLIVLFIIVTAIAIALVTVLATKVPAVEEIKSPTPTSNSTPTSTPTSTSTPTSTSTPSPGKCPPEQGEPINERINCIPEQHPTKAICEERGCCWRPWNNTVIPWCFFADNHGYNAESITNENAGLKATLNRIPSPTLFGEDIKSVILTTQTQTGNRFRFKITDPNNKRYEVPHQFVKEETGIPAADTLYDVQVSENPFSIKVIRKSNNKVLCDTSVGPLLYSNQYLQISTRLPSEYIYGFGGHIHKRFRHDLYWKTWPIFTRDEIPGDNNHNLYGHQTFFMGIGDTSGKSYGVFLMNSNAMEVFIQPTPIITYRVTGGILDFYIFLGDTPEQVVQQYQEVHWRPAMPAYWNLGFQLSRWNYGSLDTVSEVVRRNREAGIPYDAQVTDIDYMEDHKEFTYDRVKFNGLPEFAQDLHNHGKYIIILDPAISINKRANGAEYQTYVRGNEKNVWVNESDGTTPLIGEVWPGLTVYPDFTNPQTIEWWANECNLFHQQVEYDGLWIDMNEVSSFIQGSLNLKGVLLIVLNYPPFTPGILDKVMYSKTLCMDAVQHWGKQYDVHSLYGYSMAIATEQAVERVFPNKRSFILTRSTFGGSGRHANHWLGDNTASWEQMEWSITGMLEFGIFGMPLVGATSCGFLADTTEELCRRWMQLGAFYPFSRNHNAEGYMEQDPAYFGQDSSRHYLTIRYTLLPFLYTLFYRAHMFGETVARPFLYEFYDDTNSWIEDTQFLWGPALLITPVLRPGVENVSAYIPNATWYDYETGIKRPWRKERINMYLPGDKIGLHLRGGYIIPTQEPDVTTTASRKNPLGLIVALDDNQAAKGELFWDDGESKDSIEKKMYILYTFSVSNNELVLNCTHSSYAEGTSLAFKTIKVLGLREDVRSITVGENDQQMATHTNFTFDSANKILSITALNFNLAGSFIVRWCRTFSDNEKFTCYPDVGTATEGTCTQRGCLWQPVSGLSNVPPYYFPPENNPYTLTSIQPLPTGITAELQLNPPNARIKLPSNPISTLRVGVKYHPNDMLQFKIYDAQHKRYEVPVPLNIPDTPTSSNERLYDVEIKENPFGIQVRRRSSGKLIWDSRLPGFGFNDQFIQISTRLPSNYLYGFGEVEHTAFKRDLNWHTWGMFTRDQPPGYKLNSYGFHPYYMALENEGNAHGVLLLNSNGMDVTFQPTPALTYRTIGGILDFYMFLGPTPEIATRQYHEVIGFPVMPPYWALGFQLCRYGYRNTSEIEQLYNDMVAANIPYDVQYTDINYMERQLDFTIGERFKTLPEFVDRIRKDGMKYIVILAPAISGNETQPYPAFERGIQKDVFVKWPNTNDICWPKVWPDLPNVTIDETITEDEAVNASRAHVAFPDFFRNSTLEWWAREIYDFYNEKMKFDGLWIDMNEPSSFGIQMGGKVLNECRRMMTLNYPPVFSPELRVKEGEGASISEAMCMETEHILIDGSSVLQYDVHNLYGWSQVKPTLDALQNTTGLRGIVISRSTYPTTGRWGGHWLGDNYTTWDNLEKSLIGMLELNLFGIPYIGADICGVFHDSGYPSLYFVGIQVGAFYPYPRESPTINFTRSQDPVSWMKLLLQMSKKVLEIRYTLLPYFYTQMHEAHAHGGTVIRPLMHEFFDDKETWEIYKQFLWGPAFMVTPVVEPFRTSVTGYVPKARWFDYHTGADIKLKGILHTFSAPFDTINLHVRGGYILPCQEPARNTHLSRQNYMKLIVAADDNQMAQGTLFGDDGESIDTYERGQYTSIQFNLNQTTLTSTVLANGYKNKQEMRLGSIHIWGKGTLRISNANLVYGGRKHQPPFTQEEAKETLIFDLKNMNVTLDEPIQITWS

| Structure (SMILES) | IC50 [1] [nM] | IC50 [2] [nM] | IC50 [3] [nM] | IC50 [4] [nM] | IC50 [5] [nM] |
| --- | --- | --- | --- | --- | --- |
| O=[N+]([O-])c1cc(CN2CCCO2)ccc1NCc1ccc(CN2C[C@H](O)[C@@H](O)[C@H](O)[C@H]2CO)cc1 [Compound 1098] | 40 | 83 | 175 | 13 | 23 |
| OC[C@@H]1[C@@H](O)[C@H](O)[C@@H](O)CN1Cc1ccc(CNc2ccc(-c3cccnn3)cc2)cc1 [Compound 1095, (2R,3R,4R,5S)-2-(hydroxymethyl)-1-{[4-({[4-(pyridazin-3-yl)phenyl]amino}methyl)phenyl]methyl}piperidine-3,4,5-triol] | 13 | 657 | 243 | 11 | 12 |
| [N-]=[N+]=Nc1ccc(NCC2COC(CN3C[C@H](O)[C@@H](O)[C@H](O)[C@H]3CO)CO2)c([N+](=O)[O-])c1 (stereo partly drawn) [Compound 1280, (2R,3R,4R,5S)-1-[(5-{[(4-azido-2-nitrophenyl)amino]methyl}-1,4-dioxan-2-yl)methyl]-2-(hydroxymethyl)piperidine-3,4,5-triol] | – | 194 | – | – | 1460 |
